Ends that are not written are not given here.
T1: Spt7 bromodomain (residues 363–619) (UniProt P35177 363-619)
T1 construct: Spt7, bromodomain construct, amino acids 363-619; also called purified recombinant Spt7 bromodomain; source: recombinant, expressed and purified as described (Boubriak et al., 2009)
T1 sequence (looked up): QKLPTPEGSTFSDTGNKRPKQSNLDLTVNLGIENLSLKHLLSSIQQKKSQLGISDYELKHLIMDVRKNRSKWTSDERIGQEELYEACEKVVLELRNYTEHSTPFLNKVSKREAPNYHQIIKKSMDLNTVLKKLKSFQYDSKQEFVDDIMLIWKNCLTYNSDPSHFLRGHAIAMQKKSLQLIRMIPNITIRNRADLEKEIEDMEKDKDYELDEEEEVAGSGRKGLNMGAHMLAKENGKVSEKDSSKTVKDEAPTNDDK


What was measured:
[1] = tested on: Spt7 bromodomain (residues 363–619); experiment: Peptide pull-down with Spt7 bromodomain; assay type: binding, yeast; conditions: for Binding to Spt7 bromodomain: SulfoLink resin, bromodomain 30 µg/ml, 2 h at 4°C, Coomassie gel, relative to K18ac peptide, Figure 6B, n = 3
From the text: (§1) We developed a second assay that involves monitoring the effect of the P16V substitution on the binding of the Spt7 bromodomain to an H3 peptide modified by acetylation at K14 and/or K18 using surface plasmon resonance (SPR) (Figures 6A, S4A, and S4B) or by pull downs (Figures 6B and S4C). Bromodomains are acetyl-lysine binding domains, found in a number of chromatin-associated proteins ([Taverna et al., 2007]) including Spt7. The function and binding specificity of the Spt7 bromodomain are currently unknown, but it preferentially interacts with hyperacetylated histones in vitro ([Hassan et al., 2007]). […] The binding of the Spt7 bromodomain to the P16V-substituted K18ac peptide improved binding by ∼2-fold. […] We reasoned that this could reflect an effect of the side chain on binding or an influence on the conformation of the A15-P16 bond. […] The corollary of this is that acetylation of K14 would correlate with the A15-P16 bond in the trans configuration, supporting ideas that the peptidyl-prolyl bond conformation is mainly determined by local effects in proteins ([Reimer et al., 1998]).
(§2) Figure 6 K14ac Promotes P16trans (A) Relative binding ± SEM (n = 2–11) assessed by surface plasmon resonance of purified recombinant Spt7 bromodomain (residues 363–619) to the indicated H3 peptides (11–26). (B) Coomassie-stained gel showing a pull-down experiment, quantified relative to the K18ac peptide, with the indicated H3 peptides and the purified recombinant Spt7 bromodomain (n = 3). (C) A chymotrypsin-coupled assay for proline isomers using synthetic hexamers based on GGKAPF-pNA (unmodified). pNA is released by chymotrypsin cleavage only from the trans-proline-containing peptide. (D) K14ac and substitutions at K14 influence isomerization at A15-P16 and pNA release, expressed as mean initial rate ± SEM (n = 4–5) over the first 0.6–10.2 s of the reaction. (E) Schematic showing how K14ac or the K14R substitution influence A15-P16 conformation. (F) Schematic showing how dynamic K14ac influences A15-P16 conformation and K4me3 (K4 and K14 denote that these residues are not trimethylated or acetylated respectively). (G) The balance of positive-acting factors (right panel) and negative-acting factors (left panel) controls levels of K4me3 at individual genes. […] See also Figure S4. […]
(n=5771) with the ratios of H3-normalised K4me3 in the K14A and P16V strains relative to the WT strain. Genes with ratios > 2 (n = 7 and 4 for K14A/WT and P16V/WT respectively) have been removed for clarity. Highlighted are the genes with the 200 highest and lowest ratios selected for further analysis (K14/P16-independent and K14/P16-dependent gene classes respectively). […]
(§3) Purity was determined with MALDI-TOF mass spectrometry and HPLC and the peptides used […]

[2] = tested on: Spt7 bromodomain (residues 363–619); experiment: SPR binding of H3 peptides to immobilized Spt7 bromodomain; parameters: species or system yeast; conditions: for Binding to Spt7 bromodomain: SPR, Biacore T100/T200, 25°C, peptides 1-200 µM in HBS-P+, NTA chip-captured His-tagged bromodomain, 1:1 model, Figure 6A, n = 2–11
From the text: as §1, §2
(n=5771) with the ratios of H3-normalised K4me3 in the K14A and P16V strains relative to the WT strain. Genes with ratios > 2 (n = 7 and 4 for K14A/WT and P16V/WT respectively) have been removed for clarity. Highlighted are the genes with the 200 highest and lowest ratios selected for further analysis (K14/P16-independent and K14/P16-dependent gene classes respectively). (C) Overlap (%) between the four selected gene classes from Figure S3B and the genes temporally expressed during the yeast metabolic cycle (YMC: OX, oxidative; R/B, reductive building; R/C, reductive charging phase), induced/repressed by the environmental stress response (ESR), classed as ribosomal protein genes (RPGs) or ribosome biogenesis genes (Ribis), or regulated predominantly by SAGA or TFIID. […]
YMC and ESR expression data were taken from (Tu et al., 2005) and (Gasch et al., 2000) respectively. SAGA/TFIID-regulated genes were obtained from (Huisinga and Pugh, […]
Figure S4. (Related to Figure 6)
(A) Surface plasmon resonance (SPR) affinity fits for the indicated H3 peptides encompassing residues 11-26 binding to the Spt7 bromodomain (residues 363-619). Also shown is a typical sensorgram of H3 peptide binding to the Spt7 bromodomain […]
values ± SEM for Spt7 binding to variously-modified H3 peptides. (C) A peptide pull-down experiment with a range of H3 peptides and the WT or substituted Spt7 bromodomain […]
Peptides for bromodomain interaction studies
Peptides were synthesized at GL Biochem (Shanghai) LTD, China and Proteogenix, France.
as §3
The peptide sequences are listed in the […]

[3] = tested on: bromodomain carrying alanine substitutions (Y500A/Y520A/N521A); experiment: Peptide pull-down with substituted Spt7 bromodomain; assay type: binding, yeast; conditions: bromodomain with alanine at Y500, Y520 and N521, Figure S4C
From the text: as §1, with “1998]). […]” for “1998]).”
bin expressed as a proportion of the total K4me3 across the gene. […] P values were calculated from a simulated probability distribution curve. […]
as §3

[4] = biological target: T1, Spt7 bromodomain (residues 363–619); experiment: SPR; peptides binding to immobilized Spt7 bromodomain; Biacore T100 and T200, 25°C; 1:1 binding model; relative binding; conditions: both partners purified

| Molecule | Binding to Spt7 bromodomain [1] | Binding to Spt7 bromodomain [2] | further results |
| --- | --- | --- | --- |
| TGGKAPRKQLASKAARC [unmodified H3 peptide, H3 peptide (11–26), unmodified, for bromodomain studies] | lack of binding | lack of binding | – |
| TGGRAVR(Kac)QLASKAARC [valine substitution at P16 in the K14R-K18ac peptide] | – | restored binding at levels between the P16V-K18ac and K18ac peptides | – |
| TGG(Kac)APRKQLASKAARC [peptide acetylated at K14, H3 peptide (11–26) acetylated at K14, for bromodomain studies] | lack of binding | lack of binding | – |
| TGGKAVR(Kac)QLASKAARC [P16V-K18ac, H3 peptide (11–26), P16V, acetylated K18] | – | – | Improvement of binding to Spt7 bromodomain on P16V substitution ([2]; P16V-substituted versus K18ac peptide, SPR (text does not say whether SPR or pull-down), 25°C): ~2 fold |
| TGGRAPR(Kac)QLASKAARC [K14R-K18ac, H3 peptide (11–26), K14R, acetylated K18] | – | no binding was observed | – |
| TGG(Kac)APR(Kac)QLASKAARC [peptide acetylated at both K14 and K18] | – | binding to the Spt7 bromodomain similar to the P16V-K18ac peptide | – |
| TGGKAPR(Kac)QLASKAARC [K18ac, H3 peptide (11–26) acetylated at K18] | specifically recognized acetylated K18 | specifically recognized acetylated K18 | Enrichment of binding over the unmodified peptide ([1]; WT versus Y500A/Y520A/N521A bromodomain, Figure S4C): enriched; Binding to substituted Spt7 bromodomain [3]: lack of binding |
| TGGRAVRK(Ac)QLASKAAR (peptide, UniProt P61830 12-27, looked up, histone H3, residues 11-26; also called K14R-P16V-K18ac peptide; source: synthetic peptide (GL Biochem and Proteogenix)) [K14R-K18ac H3 peptide (11–26) with a valine substitution at P16] | – | – | binding result [4]: binds |
| TGGKAVRK(Ac)QLASKAAR (peptide, UniProt P61830 12-27, looked up, histone H3, residues 11-26; also called P16V-K18ac peptide; P16V-K18ac; source: synthetic peptide (GL Biochem and Proteogenix)) [P16V-substituted K18ac H3 peptide (11–26)] | – | – | fold change of binding against the K18ac peptide [4]: ~2 fold |

From publication PMC4157579, “Lysine Acetylation Controls Local Protein Conformation by Influencing Proline Isomerization” (Molecular Cell, 2014)
